Source: US7544377B2, “Chewable compositions with fast release magnolia bark extract” (GIC Innovations Company, priority 2005, dated 2009)

Experiments:
incubated saliva = assay: MIC of surface active agents and emulsifiers, two-fold broth dilution; assay type: cell-based; details: 24 hours at 37° C., lowest dilution not turbid
Procedure: (§1) To evaluate the germ-kill efficacy and synergist effect when two or more germ-kill actives are combined, testing was performed to determine the ratio of MBE to surface active agent. The germ-kill active and/or surface active agent were dissolved in ethanol or sterile water to give an initial concentration 0.1% to 1%. The solution was diluted with a nutrient broth to give an initial concentration of 0.05% to 0.5%, which was then serially diluted two-fold so that each subsequent dilution contained 50% of the compound concentration of the previous dilution while maintaining a constant level of nutrients for each dilution. These dilutions were inoculated with representative oral microorganisms, or incubated saliva, and incubated for 24 hours at 37° C. For each surface active agent, the lowest dilution that was not turbid was registered as the MIC. The MBC was determined by transferring 10 microliter of liquid from non-turbid tubes to fresh growth media and incubated for 48 hours.

[1] = system: bacteria from freshly-collected simulated whole saliva (biofilm); assay: Mixed culture saliva biofilm on saliva-coated hydroxyapatite discs, timed exposure to actives; assay type: cell-based; details: for % OD reduction (600 nm): Table 8
Procedure: Although useful to show the comparative effect of Magnolia Bark Extract on biofilm formation and MIC growth, the foregoing test procedure may not effectively mimic the in vivo exposure of an oral care product to a developing plaque biofilm. In an in vivo situation, the active could be exposed to the plaque for a defined period of time at a set frequency (for example, for 5 minutes, three times a day). Therefore, a series of comparative experiments were conducted to mimic the in vivo use of potential active ingredients. To perform the tests the saliva compositions listed below in Tables 2 and 3 were prepared.
A mixed culture system that utilizes the bacteria from freshly-collected simulated whole saliva was used. Saliva cell pellets were used to inoculate saliva-coated hydroxyapatite (S-HA) discs. The discs were placed in 24-well cell culture plates and incubated for up to 3 days. Biofilms were exposed to actives on days 2 and 3 (starting at 18 hours), and quantified on day 4. The number of bacteria was determined by spectrophotometric absorbance or optical density (OD) at 600 nm. The five phases of the experiment were: pellicle formation; bacterial attachment; biofilm growth; exposure to actives; and bacterial enumeration.
To form the pellicles, HA Discs were ultrasonically washed in deionized water and air-dried, then autoclaved. The discs were placed in a 24-well plate with 1 ml 50% sterile saliva (1 part sterile whole saliva: 1 part saliva buffer, filter sterilize after preparation) for 2 hours on slow agitation at room temperature. The saliva was suctioned and then the discs were transferred to fresh wells for bacterial attachment.
To form the biofilms, the bacterial suspension was removed, and the discs were transferred to fresh wells. One ml of supplemented saliva medium was added and the plate was placed in the incubator for overnight incubation and for the duration of the experiment (up to 72 hours).
A stock solution of 1% Magnolia Bark Extract in 60% ethanol was prepared. Magnolia Bark Extract samples were prepared having a concentration range of 125, 250, 500, and 1000 μg/ml (ppm) in a Phosphate-Buffered-Saline (PBS) solution, where the negative control was PBS and the positive control was CHX having a concentration of 0.12%.
One-ml quantities of active ingredients and controls were placed into fresh wells, and the discs were transferred to these wells for 5 minutes. The chlorhexidine control exposure was one minute, two times a day to mimic the standard mouth-rinse procedure. The exposure to active ingredient was carried out at 8:00 AM, 12:00 and 4:00 PM. After the timed exposure, the solution was removed and the discs washed twice with PBS and then transferred to fresh medium. For some experiments, the medium used during the day was TSB (Tryptic Soy Broth) with a 50 μl 40% sterile sucrose solution added to each well (to give a 2% sucrose solution). The medium was not replaced after the mid-day exposure.
After overnight incubation (day 2), discs were exposed to controls and actives. On day 3 the biofilms were again exposed to tests and controls. On day 4 the discs were removed from the medium, the medium pH was measured to obtain an indication of metabolic activity, and the discs were placed into tubes with 2.5 ml PBS, vortexed for 20 sec, and then placed into the ultrasonic bath for another 20 sec. The suspension was transferred into cuvettes and the bacterial cell density determined by OD measurements at 600 nm.
To evaluate the effect of Magnolia Bark Extract in combination with the surface active agent, sodium lauryl sulfate, five active ingredient solutions were prepared using the procedures described above. […] Also, the MBE solutions were prepared to have a concentration of 500 ppm. Sodium lauryl sulfate was added to two of the Magnolia Bark Extract solutions to obtain SLS concentrations of 0.05% and 0.1% in the Magnolia Bark Extract solutions. […]

S. mutans = assay: MIC and fractional inhibitory index of MBE / surface active agent combinations; assay type: cell-based, Streptococcus mutans; details: 24 hours at 37° C.
Procedure: as §1
(1) where an FIC value of less than 1.0 is synergistic, an FIC between 1.0 and 2.0 is additive, and an FIC greater than 2.0 is antagonistic.

Sucrose Stearate
MIC (ppm) (incubated saliva): >500 ppm

CCCCCCCCCCCCOS(=O)(=O)[O-].[Na+] [SLS, sodium lauryl sulfate]
pH (medium pH, indication of metabolic activity) ([1]; Table 7, SLS 1000 ppm): 5.7
% OD reduction (600 nm) ([1]; SLS 1000 ppm): 61%

Sodium Brasslate
MIC (ppm) (incubated saliva): 500 ppm

N=C(NCCCCCCNC(=N)NC(=N)Nc1ccc(Cl)cc1)NC(=N)Nc1ccc(Cl)cc1.O=C(O)[C@H](O)[C@@H](O)[C@H](O)[C@H](O)CO.O=C(O)[C@H](O)[C@@H](O)[C@H](O)[C@H](O)CO [Chlorhexidine gluconate]
MIC/ppm (S. mutans): 2 ppm
MIC (ppm) (incubated saliva): 2 ppm

[H]/N=C(\N/C(=N/[H])NCCCCCCNC(=N)NC(=N)Nc1ccc(Cl)cc1)Nc1ccc(Cl)cc1 [CHX, chlorhexidine]
pH (medium pH, indication of metabolic activity) ([1]; Table 5, CHX 0.12%, exposure one minute, two times a day): 8.8
% OD reduction (600 nm, compared to PBS control) ([1]; Table 6, CHX 0.12%, exposure one minute, two times a day): 84%
pH (medium pH, indication of metabolic activity) ([1]; Table 7, CHX 0.1% (1000 ppm)): 8.8
% OD reduction (600 nm) ([1]; CHX 0.1% (1000 ppm)): 94%

Sodium Stearoyl Lactylate
MIC (ppm) (incubated saliva): >3000 ppm

Sucrose Distearate
MIC (ppm) (incubated saliva): >500 ppm
